What was measured:
LoVo = experiment: SRB colorimetric cell growth inhibition assay, LoVo; assay type: cell-based; details: Homo sapiens, LoVo
Summary of the method: (§1)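 Read-out: sulforhodamine B colorimetry of surviving cell mass after continued exposure of human tumour lines to sample. Values are means ± SD of three wells, expressed as GI, TGI or LC.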

IGROV = experiment: SRB colorimetric cell growth inhibition assay, IGROV; assay type: cell-based; details: Homo sapiens, IGROV
Summary of the method: as §1

K-562 = experiment: SRB colorimetric cell growth inhibition assay, K-562; assay type: cell-based; details: Homo sapiens
Summary of the method: as §1

SK-MEL-28 = experiment: SRB colorimetric cell growth inhibition assay, SK-MEL-28; assay type: cell-based; details: Homo sapiens
Summary of the method: as §1

PANC-1 = experiment: SRB colorimetric cell growth inhibition assay, PANC-1; assay type: cell-based; details: Homo sapiens
Summary of the method: as §1

A-549 = experiment: SRB colorimetric cell growth inhibition assay, A-549; assay type: cell-based; details: Homo sapiens
Summary of the method: as §1

human topoisomerase I = target: T1, human topoisomerase I (Homo sapiens, UniProt P11387); experiment: Topoisomerase I DNA relaxation assay (supercoiled plasmid DNA); assay type: biochemical; details: supercoiled plasmid DNA, each compound tested at 1 μM, agarose gel with ethidium bromide
T1 sequence (P11387 1-765): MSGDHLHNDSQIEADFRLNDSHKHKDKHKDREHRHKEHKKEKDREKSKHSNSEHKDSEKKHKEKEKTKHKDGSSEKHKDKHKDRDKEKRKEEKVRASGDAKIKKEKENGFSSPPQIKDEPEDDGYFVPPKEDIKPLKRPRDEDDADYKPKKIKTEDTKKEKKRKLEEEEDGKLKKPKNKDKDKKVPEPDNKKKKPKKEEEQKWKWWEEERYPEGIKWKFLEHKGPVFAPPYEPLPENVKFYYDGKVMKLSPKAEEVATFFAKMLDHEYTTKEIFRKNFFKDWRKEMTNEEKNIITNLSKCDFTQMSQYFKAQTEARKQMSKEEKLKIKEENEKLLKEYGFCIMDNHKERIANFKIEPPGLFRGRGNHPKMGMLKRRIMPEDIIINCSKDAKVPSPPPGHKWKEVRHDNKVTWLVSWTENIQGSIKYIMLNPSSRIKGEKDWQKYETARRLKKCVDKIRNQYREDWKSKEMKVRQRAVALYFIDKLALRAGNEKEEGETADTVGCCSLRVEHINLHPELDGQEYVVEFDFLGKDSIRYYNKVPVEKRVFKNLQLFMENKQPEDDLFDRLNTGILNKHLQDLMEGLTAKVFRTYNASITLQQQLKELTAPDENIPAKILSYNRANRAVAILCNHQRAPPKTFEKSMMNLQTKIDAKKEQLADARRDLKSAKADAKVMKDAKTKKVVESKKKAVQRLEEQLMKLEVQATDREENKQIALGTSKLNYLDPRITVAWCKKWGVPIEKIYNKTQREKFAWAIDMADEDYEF
Summary of the method: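 Test compounds (1 μM each) were present during topoisomerase I relaxation of supercoiled plasmid DNA. Relaxation was assessed on ethidium bromide-stained agarose gels.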

HT-29 = experiment: SRB colorimetric cell growth inhibition assay, HT-29; assay type: cell-based; details: Homo sapiens
Summary of the method: as §1

LoVo-Dox = experiment: SRB colorimetric cell growth inhibition assay, LoVo-Dox (MDR); assay type: cell-based; details: Homo sapiens
Summary of the method: as §1

LNCaP = experiment: SRB colorimetric cell growth inhibition assay, LNCaP; assay type: cell-based; details: Homo sapiens, LNCaP
Summary of the method: as §1

IGROV-ET = experiment: SRB colorimetric cell growth inhibition assay, IGROV-ET (ET-743 resistant); assay type: cell-based; details: Homo sapiens
Summary of the method: as §1

DU-145 = experiment: SRB colorimetric cell growth inhibition assay, DU-145; assay type: cell-based; details: Homo sapiens
Summary of the method: as §1

SK-BR-3 = experiment: SRB colorimetric cell growth inhibition assay, SK-BR-3; assay type: cell-based; details: Homo sapiens
Summary of the method: as §1

**Q.** For `COc1cc(-c2c3n(c4c(=O)oc5cc(OC(=O)[C@H](N)C(C)C)c(OC)cc5c24)CCc2cc(OC(=O)[C@H](N)C(C)C)c(OC)cc2-3)ccc1OC(=O)[C@H](N)C(C)C` [Compound 32], which CC50 (LoVo; read-out: LC50 LOVO, LOVO, LC=cell killing (cytotoxic effect)) is on record?
**A.** The CC50 was 6310 nM.

**Q.** And the GI50 (LoVo; GI=growth inhibition, read-out: GI50 LOVO)?
**A.** The GI50 was 392 nM.

**Q.** And the IC (TGI) (LoVo; TGI=total growth inhibition (cytostatic effect), read-out: TGI LOVO)?
**A.** Its IC (TGI) is 1650 nM.

**Q.** And the CC50 (IGROV; read-out: LC50 IGROV, IGROV, cell killing (cytotoxic effect))?
**A.** The CC50 was 6120 nM.

**Q.** What about the GI50 (IGROV; GI=growth inhibition, read-out: GI50 IGROV) of the same compound?
**A.** Its GI50 is 561 nM.

**Q.** And the IC (TGI) (IGROV; total growth inhibition (cytostatic effect), read-out: TGI IGROV)?
**A.** The IC (TGI) was 2060 nM.

**Q.** And the GI50 (K-562; K562, K-562, GI=growth inhibition, read-out: GI50 K-562)?
**A.** Its GI50 is 673 nM.

**Q.** What about the IC (TGI) (K-562; K562, K-562, TGI=total growth inhibition (cytostatic effect), read-out: TGI K-562) of the same compound?
**A.** Its IC (TGI) is 2430 nM.

**Q.** And the CC50 (K-562; K562, read-out: LC50 K-562, K-562, LC=cell killing (cytotoxic effect))?
**A.** Its CC50 is 8310 nM.

**Q.** What about the GI50 (SK-MEL-28; SK-MEL-28, MEL-28, GI=growth inhibition, read-out: GI50 MEL-28) of the same compound?
**A.** Its GI50 is 1350 nM.

**Q.** What about the IC (TGI) (SK-MEL-28; SK-MEL-28, MEL-28, total growth inhibition (cytostatic effect), read-out: TGI MEL-28) of the same compound?
**A.** Its IC (TGI) is 2870 nM.

**Q.** And the CC50 (SK-MEL-28; SK-MEL-28, read-out: LC50 MEL-28, MEL-28, cell killing (cytotoxic effect))?
**A.** Its CC50 is 6130 nM.

**Q.** And the GI50 (PANC-1; PANC-1, PANC-1, GI=growth inhibition, read-out: GI50 PANC-1)?
**A.** The GI50 was 316 nM.

**Q.** And the IC (TGI) (PANC-1; PANC-1, PANC-1, TGI=total growth inhibition (cytostatic effect), read-out: TGI PANC-1)?
**A.** The IC (TGI) was 1380 nM.

**Q.** What about the CC50 (PANC-1; PANC-1, read-out: LC50 PANC-1, PANC-1, LC=cell killing (cytotoxic effect)) of the same compound?
**A.** The CC50 was 8760 nM.

**Q.** And the GI50 (A-549; A549, A-549, GI=growth inhibition, read-out: GI50 A-549)?
**A.** The GI50 was 1530 nM.

**Q.** What about the IC (TGI) (A-549; A549, A-549, TGI=total growth inhibition (cytostatic effect), read-out: TGI A-549) of the same compound?
**A.** The IC (TGI) was 3340 nM.

**Q.** And the CC50 (A-549; A549, read-out: LC50 A-549, A-549, LC=cell killing (cytotoxic effect))?
**A.** Its CC50 is 7330 nM.

**Q.** And the “stimulation of DNA cleavage by topoisomerase I / inhibition of topoisomerase I (nicked DNA band) in DNA relaxation assay” value (human topoisomerase I)?
**A.** The value was “No effect”.

**Q.** What about the GI50 (HT-29; HT-29, HT-29, GI=growth inhibition, read-out: GI50 HT-29) of the same compound?
**A.** Its GI50 is 2660 nM.

**Q.** What about the IC (TGI) (HT-29; HT-29, HT-29, TGI=total growth inhibition (cytostatic effect), read-out: TGI HT-29) of the same compound?
**A.** Its IC (TGI) is 5300 nM.

**Q.** What about the CC50 (HT-29; HT-29, read-out: LC50 HT-29, HT-29, LC=cell killing (cytotoxic effect)) of the same compound?
**A.** Its CC50 is 8760 nM.

**Q.** And the GI50 (LoVo-Dox; LOVO-DOX, GI=growth inhibition, read-out: GI50 LOVO-DOX)?
**A.** The GI50 was 671 nM.

**Q.** What about the IC (TGI) (LoVo-Dox; LOVO-DOX, TGI=total growth inhibition (cytostatic effect), read-out: TGI LOVO-DOX) of the same compound?
**A.** Its IC (TGI) is 2420 nM.

**Q.** And the CC50 (LoVo-Dox; read-out: LC50 LOVO-DOX, LOVO-DOX, LC=cell killing (cytotoxic effect))?
**A.** The CC50 was 8250 nM.

**Q.** What about the GI50 (LNCaP; LN-caP, GI=growth inhibition, read-out: GI50 LN-caP) of the same compound?
**A.** The GI50 was 429 nM.

**Q.** And the IC (TGI) (LNCaP; LN-caP, total growth inhibition (cytostatic effect), read-out: TGI LN-caP)?
**A.** Its IC (TGI) is 1670 nM.

**Q.** What about the CC50 (LNCaP; read-out: LC50 LN-caP, LN-caP, cell killing (cytotoxic effect)) of the same compound?
**A.** The CC50 was 5080 nM.

**Q.** What about the GI50 (IGROV-ET; IGROV-ET, GI=growth inhibition, read-out: GI50 IGROV-ET) of the same compound?
**A.** Its GI50 is 666 nM.

**Q.** What about the IC (TGI) (IGROV-ET; IGROV-ET, total growth inhibition (cytostatic effect), read-out: TGI IGROV-ET) of the same compound?
**A.** Its IC (TGI) is 3010 nM.

**Q.** And the CC50 (IGROV-ET; read-out: LC50 IGROV-ET, IGROV-ET, cell killing (cytotoxic effect))?
**A.** The CC50 was 8760 nM.

**Q.** And the GI50 (DU-145; DU-145, DU-145, GI=growth inhibition, read-out: GI50 DU-145)?
**A.** Its GI50 is 111 nM.

**Q.** What about the IC (TGI) (DU-145; DU-145, DU-145, total growth inhibition (cytostatic effect), read-out: TGI DU-145) of the same compound?
**A.** The IC (TGI) was 309 nM.

**Q.** And the CC50 (DU-145; DU-145, read-out: LC50 DU-145, DU-145, cell killing (cytotoxic effect))?
**A.** The CC50 was 857 nM.

**Q.** What about the GI50 (SK-BR-3; SK-BR-3, SK-BR-3, GI=growth inhibition, read-out: GI50 SK-BR-3) of the same compound?
**A.** The GI50 was 1300 nM.

**Q.** And the IC (TGI) (SK-BR-3; SK-BR-3, SK-BR-3, total growth inhibition (cytostatic effect), read-out: TGI SK-BR-3)?
**A.** Its IC (TGI) is 3190 nM.

**Q.** And the CC50 (SK-BR-3; SK-BR-3, read-out: LC50 SK-BR-3, SK-BR-3, cell killing (cytotoxic effect))?
**A.** The CC50 was 7820 nM.
